Data from patent US20110111016A1, “NON-DNA BASE-CONTAINING POLYNUCLEOTIDE COMPOSITIONS AND THEIR USE FOR THE MODULATION OF IMMUNE RESPONSES” (priority 2009, published 2011).

Assays:
human TLR7 = target: T1, human TLR7 (Homo sapiens, UniProt Q9NYK1); assay: NF-κB activation (secreted alkaline phosphatase reporter) in HEK293 cells expressing human TLR7; format: cell-based; conditions: HEK293/TLR7 cell line; polynucleotide final concentration 10 μg/mL; 16-20 hours
T1 construct: host or cells: HEK293
T1 sequence (Q9NYK1 27-1049): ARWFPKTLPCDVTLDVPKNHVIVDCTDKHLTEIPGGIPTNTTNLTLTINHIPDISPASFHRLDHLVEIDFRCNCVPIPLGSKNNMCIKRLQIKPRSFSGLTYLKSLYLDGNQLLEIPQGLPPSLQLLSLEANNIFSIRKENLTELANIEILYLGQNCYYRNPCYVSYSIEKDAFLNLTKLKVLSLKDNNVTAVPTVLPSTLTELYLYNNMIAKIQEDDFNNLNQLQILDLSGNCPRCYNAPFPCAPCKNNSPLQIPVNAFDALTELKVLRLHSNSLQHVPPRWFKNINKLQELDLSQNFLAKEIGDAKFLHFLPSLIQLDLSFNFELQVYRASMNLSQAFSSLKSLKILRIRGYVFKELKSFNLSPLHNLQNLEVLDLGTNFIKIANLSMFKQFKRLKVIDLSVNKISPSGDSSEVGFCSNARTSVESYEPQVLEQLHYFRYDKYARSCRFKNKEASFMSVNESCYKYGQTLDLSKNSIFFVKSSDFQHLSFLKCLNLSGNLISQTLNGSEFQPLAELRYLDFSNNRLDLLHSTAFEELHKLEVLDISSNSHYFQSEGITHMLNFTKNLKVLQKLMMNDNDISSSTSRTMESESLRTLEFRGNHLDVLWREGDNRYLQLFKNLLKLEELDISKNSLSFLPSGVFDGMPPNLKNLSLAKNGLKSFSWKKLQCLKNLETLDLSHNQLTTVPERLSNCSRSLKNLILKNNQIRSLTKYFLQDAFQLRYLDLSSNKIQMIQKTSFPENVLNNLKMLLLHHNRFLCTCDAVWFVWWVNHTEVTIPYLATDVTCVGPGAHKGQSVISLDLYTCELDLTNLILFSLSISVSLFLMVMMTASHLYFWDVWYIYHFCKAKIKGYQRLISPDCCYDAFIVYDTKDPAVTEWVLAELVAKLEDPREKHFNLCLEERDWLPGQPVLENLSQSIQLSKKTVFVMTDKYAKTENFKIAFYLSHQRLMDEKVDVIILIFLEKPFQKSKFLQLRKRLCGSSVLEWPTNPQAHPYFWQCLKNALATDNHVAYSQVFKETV
Experimental: Toll-like receptors (TLR) are known to interact with a number of natural and synthetic molecules that can function as immune adjuvants. Examples of these molecules are Poly (I:C) polynucleotides, lipopolysaccharide and CpG-containing polynucleotides. […] TLR engagement was determined by measurement of secreted alkaline phosphatase, under the control of a reporter inducible by NF-κB. Appropriate positive controls were used for each TLR. The non-DNA base-containing polynucleotides were dissolved in sterile water at a concentration of 100 μg/mL, and used at a final concentration of 10 μg/mL. HEK293 cells containing the appropriate TLR and NF-κB reporting system (InvivoGen, San Diego, Calif., USA) were placed in wells of 96 well plates (25,000-50,000 cells, in a final volume of 200 μL medium designed for the detection of NF-κB induced secreted alkaline phosphatase expression), and incubated with non-DNA base-containing polynucleotides or positive controls for 16-20 hours. TLR activating activity was determined by measurement of absorbance at 650 nm wavelength using a Coulter AD340C absorbance detector. The results shown are expressed as Optical Density (OD).

human PBMC = assay: Induction of cytokines and chemokines from human PBMC, comparison with CpG polynucleotides (Milliplex MAP kit); format: cell-based; conditions: for Cytokine, IL-6 / Cytokine, IL-10 / Cytokine, MCP-1 / Cytokine, RANTES (CCL5): human PBMC culture supernatant, 48 h, final concentration 10 μg/mL; for Chemokine (MCP-1, RANTES) inducing activity towards human PBMC (in words) / Interleukin (cytokine) inducing activity towards human PBMC (in words): in comparison to LPS and MCC, Table 14
Experimental: LPS and MCC were included as positive controls as described in Example 7. PBMC were isolated from whole blood using standard Ficoll-Paque Plus (GE Healthcare Life Sciences, Baie d'Urfé, QC, Canada) gradient centrifugation, and placed in tissue culture plates at a concentration of 1×10^6 cells/mL (total volume: 1 mL in RPMI 1640 medium containing 10% heat-inactivated FBS (both from Wisent, St-Bruno, QC, Canada) and 50 μg/mL gentamycin sulfate (Sigma-Aldrich Canada, Oakville, ON, Canada). Non-DNA base-containing polynucleotide SEQ ID NOs: 1, 2, 3, 4, 5, 6, 7, 8 and 9 were added to separate wells to give a final concentration of 10 μg/mL, LPS was added to give a final concentration of 10 μg/mL, and the non-CpG 4010, CpG 2336, CpG 2429 and CpG 7909 polynucleotides, SEQ ID NOs: 31, 33, 35 and 34, respectively, were added to give a final concentration of 10 μg/mL.
The cells were then cultivated for 48 h. Cytokines (interleukins IL-6 and IL-10, chemokines MCP-1 and RANTES) in the culture supernatant were measured using a Milliplex™ MAP kit (Millipore Corporation, Billerica, Mass., USA) on a Bio-Plex 200 system (Bio-Rad Laboratories, Hercules, Calif., USA). MCP-1, also known as monocyte chemotactic protein, is an essential chemokine required for effective monocyte and myeloid dendritic cell activation and trafficking across endothelial and epithelial barriers (see for example Henkel et al, 2004 Ann. Neurol. 55:221-235), and RANTES (Regulated on Activation, Normal T cell Expressed and Secreted, now more commonly known as CCL5) is produced by memory phenotype T cells and is chemotactic for and activates T-cells (see for example Swanson et al, 2002 Immunity 17:605-615).

Substance | TLR activation, Optical Density at 650 nm, hHTR7 (human TLR7) | Cytokine, IL-6 (human PBMC) | Cytokine, IL-10 (human PBMC) | Cytokine, MCP-1 (human PBMC) | Cytokine, RANTES (CCL5) (human PBMC) | Chemokine (MCP-1, RANTES) inducing activity towards human PBMC (in words) (human PBMC) | Interleukin (cytokine) inducing activity towards human PBMC (in words) (human PBMC)
UUGTUU [SEQ ID NO: 2] | 0.090 | 6 pg/mL | 0 pg/mL | 196 pg/mL | 66 pg/mL | marginal or no | marginal or no
NebGGTGNeb (DNA NGGTGN; Nebularine at both ends, sugar and linkages not given here, further chemistry not given here) [SEQ ID NO: 1, 5′-OH, 3′-OH non-DNA base-containing polynucleotide] | 0.097 | 26 pg/mL | 0 pg/mL | 160 pg/mL | 93 pg/mL | marginal or no | marginal or no
IIGTII [SEQ ID NO: 3] | 0.093 | 1 pg/mL | 0 pg/mL | 57 pg/mL | 72 pg/mL | marginal or no | marginal or no
